Measurements published in paper PMC10451034, “Highly Efficient Photosensitizers with Molecular Vibrational Torsion for Cancer Photodynamic Therapy” (ACS Central Science, 2023).

Assays:
[1] = tested on: murine mammary carcinoma cells (4T1); test: MTT cytotoxicity assay, 4T1; type: cell-based; conditions: Mus musculus, light or radiation study; 4T1, 660 nm irradiation 12 J/cm^2
Method: DMEM medium was replaced with saline to prevent false positive interference. Then the cells were exposed to different following treatments: 1) cells incubated with PBS; 2) cells incubated with PBS under 660 nm irradiation (20 mW/cm2, 10 min); 3) cells incubated with QTCy7-R; 4) cells incubated with QTCy7-R under 660 nm irradiation (20 mW/cm2, 10 min). After being different treated, the cells were stained with Calcein-AM and Propidium Iodide (PI) according to the manufacture instruction. Then the confocal fluorescence imaging was carried out and recorded with a 10 × objective lens.
Cytotoxicity was tested by the reduction of methyl thiazolyl tetrazolium to formazan by succinic acid dehydrogenase in the mitochondria of living cells (MTT assay). […] The MTT solution was carefully removed and 100 μL DMSO was added to dissolve formazan, and the absorbance of each well was measured by a multifunctional microplate reader at 570 nm and 630 nm. […]
Where “OD” represent the absorbance at 570 nm and 630 nm, “ps” and “control” represent experimental groups and control groups, respectively. […]
And the fluorescence signals were monitored at different post -injection time by a NightOWL II LB983 small animal in vivo imaging system (German). […]

[2] = In vivo biosafety (body weight, H&E staining of major organs); set-up: species or system BALB/c mice
Method: The efficacy and safety of each therapeutic group were also evaluated by performing a hematoxylin and eosin (H&E) staining assay of major organs and tumor tissue (Figures 10g and S23). […]
(§1) of major organs, the mice L) was intravenously injected with QTCy7-Ac (200 μM, 100 μL) 2 hours in advance were killed and the main organs and tumors were removed for […]
(§2) Tumor suppression experiments of 4T1-subcutaneous tumor model
To confirm the in vivo PDT efficacy of QTCy7-Ac, all the BALB/c mice were divided into 6 groups: 1) saline injection; 2) saline injection with 660 nm irradiation (100 mW/cm2, 15 min); 3) QTCy7-Ac (200 μM, 100 μL) intratumoral injection; 4) QTCy7-Ac (200 μM, 100 μL) intratumoral injection with 660 nm irradiation (100 mW/cm2, 15 min); 5) QTCy7-Ac (200 μM, 100 μL) intravenous injection; 6) QTCy7-Ac (200 μM, 100 μL) intravenous injection with 660 nm irradiation (100 mW/cm2, 15 min); When the volume of subcutaneous tumors reached about 100 mm 3, mice were injected with PBS or QTCy7-Ac, respectively. […] In the following half month, the tumor volume of all the mice was measured every two days by a vernier caliper. The volume of tumors was calculated by the following formula: […]
The in vivo biocompatibility was evaluated by using measurement mice body weight and H&E slice histological analysis. […]
Data were expressed as mean ± standard deviation. […]

[3] = tested on: 4T1 subcutaneous solid tumor; test: Tumor suppression (PDT) in 4T1-subcutaneous tumor model; type: in vivo, BALB/c mice; conditions: for tumor volume increase: no irradiation
Method: In view of the observation that the fluorescence intensity of QTCy7-Ac in the tumor site peaked around 2–2.5 h after intravenous injection, this period was chosen as the PDT time window. […] Even so, this approach achieved partial tumor suppression; the tumor volume was 1-fold compared with the initial situation. […] After PDT treatment, the tumor kept shrinking in size (Figure S22a), which achieved a tumor suppression rate of nearly 95% (Figure S22b). Nevertheless, the tumors in PBS groups increased quickly with a 6-fold increment compared with the initial volume whether exposed to irradiation or not, which ruled out the influence of light on tumor growth. In addition, there was virtually no difference between the intratumoral and intravenous injection groups treated with QTCy7-Ac, with tumor volumes increasing by 6-fold and 7-fold, respectively, which excluded the cytotoxicity of the dye alone. […]
as §1, §2
To confirm the in vivo PDT efficacy of QTCy7-Ac, all the BALB/c mice were divided into 6 groups: 1) saline injection; 2) saline injection with 660 nm irradiation (100 mW/cm2, 15 min); 3) QTCy7-Ac (200 μM, 100 μL) intratumoral injection; 4) QTCy7-Ac (200 μM, 100 μL) intratumoral injection with 660 nm irradiation (100 mW/cm2, 15 min); 5) QTCy7-Ac (200 μM, 100 μL) intravenous injection; 6) QTCy7-Ac (200 μM, 100 μL) intravenous injection with 660 nm irradiation (100 mW/cm2, 15 min); When the volume of subcutaneous tumors reached about 100 mm 3, mice were injected with PBS or QTCy7-Ac, respectively. After 2 h post-injection, tumor region was irradiated with […] light. In the following half month, the tumor volume of all the mice was measured every two days by a vernier caliper. The volume of tumors was calculated by the following formula: […]
Where “V” represent the tumor volume, “a” represent greatest longitudinal diameter (length) and “b” represent the greatest transverse diameter (width).
The in vivo biocompatibility was evaluated by using measurement mice body weight and H&E slice histological analysis. After the PDT treatment, the mice were euthanized, and main organs including heart, liver, spleen, lung, kidneys and tumors were harvested for histological analysis by means of hematoxylin-eosin (H&E) staining.
Data were expressed as mean ± standard deviation. Student's t test was used to evaluate the statistical significance. P values < 0.05 were regarded statistically

## CCOC(=O)C1=C/C(=C\C=C2/Sc3ccccc3N2CC)C(=O)C(/C=C/c2sc3ccccc3[n+]2CC)=C1 [QTCy7-Ac]
[1]
  IC50: ~500 nM
[2]; after 16 days of treatment
  H&E staining of major organs (heart, liver, spleen, lung, kidney): not observed
[2]; during the treatment
  body weight changes: no abnormal body weight changes
[3]; QTCy7-Ac-mediated PDT
  H&E staining of tumor tissue: Conspicuous morphological damage
[3]; intratumoral injection + 660 nm, 100 mW/cm^2, 15 min
  tumor volume compared with initial: 1 fold
[3]; intratumoral injection
  tumor volume increase: 6 fold
[3]; intravenous injection + 660 nm, 100 mW/cm^2, 15 min
  tumor suppression rate: ~95%
[3]; intravenous injection
  tumor volume increase: 7 fold
